The values that follow come from patent US20200216417A1, “INHIBITORS OF FIBROBLAST ACTIVATION PROTEIN” (Praxis Biotech LLC, priority 2019, published 2020).

Assay [1] has as its target T1, recombinant human FAPα (rhFAPα) (Homo sapiens, UniProt Q12884).
T1 construct: purchased R&S system (so in the source)
T1 sequence (Q12884 1-760): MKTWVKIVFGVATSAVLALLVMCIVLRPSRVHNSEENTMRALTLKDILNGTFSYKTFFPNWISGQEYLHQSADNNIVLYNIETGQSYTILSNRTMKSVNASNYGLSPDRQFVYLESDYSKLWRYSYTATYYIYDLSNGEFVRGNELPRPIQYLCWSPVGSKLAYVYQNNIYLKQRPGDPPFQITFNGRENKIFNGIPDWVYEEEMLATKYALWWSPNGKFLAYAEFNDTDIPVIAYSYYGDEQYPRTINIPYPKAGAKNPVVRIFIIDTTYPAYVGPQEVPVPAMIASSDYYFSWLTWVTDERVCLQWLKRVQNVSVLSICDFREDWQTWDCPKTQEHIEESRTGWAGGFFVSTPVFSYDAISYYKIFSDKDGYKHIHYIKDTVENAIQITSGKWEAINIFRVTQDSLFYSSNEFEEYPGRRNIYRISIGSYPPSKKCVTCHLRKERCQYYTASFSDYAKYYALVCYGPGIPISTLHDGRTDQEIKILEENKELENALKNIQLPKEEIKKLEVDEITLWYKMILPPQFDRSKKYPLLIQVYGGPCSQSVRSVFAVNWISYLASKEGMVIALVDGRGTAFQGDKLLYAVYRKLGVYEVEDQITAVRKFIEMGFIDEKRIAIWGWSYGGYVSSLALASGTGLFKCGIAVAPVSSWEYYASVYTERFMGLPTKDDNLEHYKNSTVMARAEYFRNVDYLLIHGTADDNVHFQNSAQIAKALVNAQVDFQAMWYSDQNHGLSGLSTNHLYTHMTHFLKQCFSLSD
Description: FAPα enzymatic endopeptidase (collagenase) activity assay, DQ collagen. The note with it: Table 2, read-out: rhFAPα (endo IC50). Format: biochemical.

Assay [2] deals with human AML cell line MV4-11. Nature of the assay: Cytotoxicity assay in human leukemia cell lines (Cell-Titer Glo). The note with it: MV4-11, 48 h, read-out: MV4-11 viability IC50, μM.

A word on the IC50: it is the concentration that inhibits the measured activity by half. As for `COc1ccc(C(=O)Nc2cnccc2C(=O)NCC(=O)N2CC(F)(F)C[C@H]2C#N)cc1` [Compound 3, (S)—N-(2-(2-cyano-4,4-difluoropyrrolidin-1-yl)-2-oxoethyl)-3-(4-methoxybenzamido)isonicotinamide], the IC50 in assay [1] is less than 1000 nM. As to `N#C[C@@H]1CC(F)(F)CN1C(=O)CNC(=O)c1ccncc1/C=C/c1ccc(Cl)cc1` [Compound 9, (S,E)-3-(4-chlorostyryl)-N-(2-(2-cyano-4,4-difluoropyrrolidin-1-yl)-2-oxoethyl)isonicotinamide], the IC50 in assay [2] is greater than 10 µM; in assay [1], less than 1000 nM.
